Experimental findings from patent US20170023550A1, “ENGINEERED THREE-DIMENSIONAL BREAST TISSUE, ADIPOSE TISSUE, AND TUMOR DISEASE MODEL” (Organovo, Inc., priority 2014, published 2017) are described below.

Holding throughout (format): cell-based, human
Assay [1] concerns bioprinted breast cancer tumor models (cancer and stromal compartments). The assay can be described thus: Apoptosis by TUNEL staining with CK8 and TE7 markers in bioprinted breast cancer tumor model. Particulars: 100 μM cisplatin for 4 days; FIG. 22. The text has this: (§1) The breast cancer tumor models included a nodule of human breast cancer cells surrounded by a physiologically-relevant stromal layer, which included human adipocytes differentiated from human mesenchymal stem cells, human mammary fibroblasts, and human endothelial cells. The adipocytes were derived from mesenchymal stem cells which were isolated an exposed to an adipocyte differentiation signal prior to preparation of the bio-ink and bioprinting.
Referring to FIG. 22, bioprinted tissues were treated with vehicle (A-C) or 100 μM cisplatin (D-F) for 4 days. The first (A and D) and second (B and E) columns depict tissues assessed for apoptosis by TUNEL staining (green) and markers for cancer cells (CK8, red). The last ([…]) column depicts tissues assessed for apoptosis by TUNEL staining (green) and markers for fibroblasts (TE7, red).

Assay [2] has as its system bioprinted breast cancer constructs (MCF7/HUVEC cancer node surrounded by NHMF, HUVEC, SPA stroma). Briefly: Construct viability after drug treatment by alamarBlue assay. To be noted: 10 μM compound for 3 days, followed by 100 μM compound for 24 hours; FIG. 14. In general terms: Resazurin is reduced to fluorescent resorufin, in cell work by metabolically active cells.
Source text: The stromal compartment of the constructs was comprised of 65% NHMF, 25% HUVEC, and 10% SPA (partially pre-differentiated). The cancer compartment of the constructs was comprised of 75% MCF7, 25% HUVEC. For each compartment, cells were mixed together at the indicated ratio and resuspended in Novogel® 3.0 at a concentration of 150 million cells/ml. Constructs were printed as 3 layered structures with a dimension of 3 mm×3 mm×0.75 mm. Immediately following bioprinting, constructs were stabilized via crosslinking After 2 minutes, the calcium crosslinking solution was aspirated and replaced with culture media. After 2 days in culture, constructs were treated overnight with enzyme dissolved in culture media to remove the Novogel® 3.0. Constructs were then incubated for up to 9 additional days. All compounds were acquired from Sigma-Aldrich and were dissolved in DMSO. Compounds were diluted to a final concentration of 10 μM or 100 μM in media. The final DMSO concentration was 0.1%, which was used for vehicle treatment. Constructs were assessed for metabolic activity by alamarBlue assay (Life Technologies, Carlsbad, Calif.) or CellTiter Glo assay (Promega, Madison, Wis.). Constructs were treated for 24 hours for labeled compound uptake studies, or for 4 days for assessment of metabolic activity.
Assay [3] relates to breast cancer cells in two-dimensional cell culture and bioprinted breast cancer tumor models. Briefly: Tamoxifen drug response by ATP luciferase assay, two-dimensional breast cancer cell culture compared to bioprinted breast cancer tumor models. To be noted: 10 μM tamoxifen for 48 hours; FIG. 20.
Source text: as §1
The breast cancer tumor models were exposed to chemotherapy compounds in order to access drug response. Referring to FIG. 20, breast cancer cells grown in two-dimensional cell culture (A) and the bioprinted breast cancer tumor models (B) were treated with media alone, DMSO, or 10 μM tamoxifen for 48 hours and assessed for viability by ATP luciferase assay. For each graph, * indicates p<0.05 for treatment compared to control.

Consider `N.N.[Cl][Pt][Cl]` [Cisplatin, cisplatin], for which the “apoptosis by TUNEL staining, stromal compartment vs cancer compartment” value in assay [1] is “induces greater apoptosis in the stromal compartment of bioprinted tissues than in the cancer compartment”. Besides, the “construct viability relative to media or vehicle controls (alamarBlue)” value in assay [2] was “decreased construct viability”. On to `CC(=O)O[C@H]1C(=O)[C@@]2(C)[C@H]([C@H](OC(=O)c3ccccc3)[C@]3(O)C[C@H](OC(=O)[C@H](O)[C@@H](NC(=O)c4ccccc4)c4ccccc4)C(C)=C1C3(C)C)[C@]1(OC(C)=O)CO[C@@H]1C[C@@H]2O` [paclitaxel], for which the “construct viability relative to media or vehicle controls (alamarBlue)” value in assay [2] is given as “decreased construct viability”. In the case of `CC/C(=C(\c1ccccc1)c1ccc(OCCN(C)C)cc1)c1ccccc1` [tamoxifen], the “susceptibility to tamoxifen-induced toxicity, two-dimensional cancer cells vs three-dimensional bioprinted constructs (viability by ATP luciferase assay)” value in assay [3] is on record as “more susceptible to tamoxifen-induced toxicity than cells incorporated into three-dimensional bioprinted constructs”.
